# Key:
# [1] = test system: Escherichia coli ATCC 10538; assay: agar diffusion test, growth inhibition zones; type: cell-based
# Candida albicans 1 = assay: agar diffusion test, growth inhibition zones; type: cell-based
# [2] = test system: Staphylococcus aureus ATCC 9144; assay: agar diffusion test, growth inhibition zones; type: cell-based
# [3] = test system: Streptococcus faecalis ATCC 8043; assay: agar diffusion test, growth inhibition zones; type: cell-based
# Candida parapsilosis = assay: agar diffusion test, growth inhibition zones; type: cell-based
# [4] = test system: Bacillus subtilis ATCC 6051; assay: agar diffusion test, growth inhibition zones; type: cell-based
# [5] = test system: Mycobacterium aurum NCTC 10437; assay: agar diffusion test, growth inhibition zones
# Procedure: The antitubercular activity was evaluated in in vitro tests against Mycobacterium aurum.
# Aspergillus fumigatus = assay: agar diffusion test, growth inhibition zones; type: cell-based
# Candida albicans 2 = assay: agar diffusion test, growth inhibition zones; type: cell-based
# Cryptococcus albidus = assay: agar diffusion test, growth inhibition zones; type: cell-based
# Sarcina lutea ATCC 9341 = assay: agar diffusion test, growth inhibition zones; type: cell-based
# [6] = test system: Salmonella tiphymurium ATCC 13311; assay: agar diffusion test, growth inhibition zones; type: cell-based
# [7] = test system: Staphylococcus epidermis ATCC 14990; assay: agar diffusion test, growth inhibition zones; type: cell-based
# Candida albicans PCA6 = assay: agar diffusion test, growth inhibition zones; type: cell-based
# [8] = test system: Enterobacter aerogenes ATCC 13047; assay: agar diffusion test, growth inhibition zones; type: cell-based
# Rodutorula rubra = assay: agar diffusion test, growth inhibition zones; type: cell-based
# Aspergillus Niger = assay: agar diffusion test, growth inhibition zones; type: cell-based
# Aspergillus Flavus = assay: agar diffusion test, growth inhibition zones; type: cell-based
# Candida tropicalis = assay: agar diffusion test, growth inhibition zones; type: cell-based
# [9] = acute toxicity (LD50) in mice; conditions: mouse, in vivo, iv; CD1 mice
# Source text: The nitrofurylbenzimidazoles (I) prepared via the process of the present invention are suitable for being compounded into topically administrable ointments and creams. […] Examples of typical formulations (suited for both topical application and systemic administration) are illustrated in the above-mentioned UK patents 1,072;735 and 1,094,903.
# Torulopsis Candida = assay: agar diffusion test, growth inhibition zones; type: cell-based
# Cryptococcus neoformans = assay: agar diffusion test, growth inhibition zones; type: cell-based
SMILES,Growth inhibition zones [1] [mm],Growth inhibition zones (Candida albicans 1) [mm],Growth inhibition zones [2] [mm],Growth inhibition zones [3] [mm],Growth inhibition zones (Candida parapsilosis) [mm],Growth inhibition zones [4] [mm],Growth inhibition zones [5] [mm],Growth inhibition zones (Aspergillus fumigatus) [mm],Growth inhibition zones (Candida albicans 2) [mm],Growth inhibition zones (Cryptococcus albidus) [mm],Growth inhibition zones (Sarcina lutea ATCC 9341) [mm],Growth inhibition zones [6] [mm],Growth inhibition zones [7] [mm],Growth inhibition zones (Candida albicans PCA6) [mm],Growth inhibition zones [8] [mm],other results
"O=[N+]([O-])c1ccc(-c2nc3ccccc3[nH]2)o1 [Es. 1, 2-(5'-nitro-2'-furyl)-benzimidazole]",22,25,35,24,37,36,24,22,42,33,15,20,35,40,18,
"Cc1ccc2[nH]c(-c3ccc([N+](=O)[O-])o3)nc2c1 [Es. 2, 5-methyl-2-(5'-nitro-2'-furyl)-benzimidazole]",13,18,30,23,29,30,13,13,33,25,12,12,32,32,16,
"O=[N+]([O-])c1ccc(-c2nc3cc(F)ccc3[nH]2)o1 [Es. 3, 5-fluoro-2-(5'-nitro-2'-furyl)-benzimidazole]",21,34,28,33,34,27,35,30,34,35,27,23,29,34,,Growth inhibition zones (Rodutorula rubra): 35 mm; Growth inhibition zones (Aspergillus Niger): 38 mm; Growth inhibition zones (Aspergillus Flavus): 30 mm; Growth inhibition zones (Candida tropicalis): 25 mm; LD50 [9]: 240 mg/kg; Growth inhibition zones (Torulopsis Candida): 42 mm; Growth inhibition zones (Cryptococcus neoformans): 45 mm
"O=[N+]([O-])c1ccc2[nH]c(-c3ccc([N+](=O)[O-])o3)nc2c1 [Es. 4, 5-nitro-2-(5'-nitro-2'-furyl)-benzimidazole]",15,,30,20,,30,15,,,,12,15,32,,14,
"O=[N+]([O-])c1ccc(-c2nc3cc(C(F)(F)F)ccc3[nH]2)o1 [Es. 5, 5-trifluoromethyl-2-(5'-nitro-2'-furyl)-benzimidazole]",11,,30,21,20,26,22,,22,,14,13,30,23,,
"O=[N+]([O-])c1ccc(-c2nc3cc(Cl)ccc3[nH]2)o1 [Es. 6, 5-chloro-2-(5'-nitro-2'-furyl)-benzimidazole]",15,15,28,22,21,23,13,,22,,,14,30,22,12,

# Source: patent publication EP0252028A1 (priority 1986, dated 1988)
